In patent US20160193216A1 (Nimbus Iris, Inc., priority 2012, published 2016):
Like-named read-outs stand apart in the source and are kept apart here.

Key:
IRAK4 = molecular target: T1, IRAK4 (Homo sapiens, UniProt Q9NWZ3); test: IRAK-4 activity inhibition assay (Caliper); type: biochemical; conditions: 37 μM ATP, 3.5 nM IRAK4
T1 sequence (Q9NWZ3 1-460): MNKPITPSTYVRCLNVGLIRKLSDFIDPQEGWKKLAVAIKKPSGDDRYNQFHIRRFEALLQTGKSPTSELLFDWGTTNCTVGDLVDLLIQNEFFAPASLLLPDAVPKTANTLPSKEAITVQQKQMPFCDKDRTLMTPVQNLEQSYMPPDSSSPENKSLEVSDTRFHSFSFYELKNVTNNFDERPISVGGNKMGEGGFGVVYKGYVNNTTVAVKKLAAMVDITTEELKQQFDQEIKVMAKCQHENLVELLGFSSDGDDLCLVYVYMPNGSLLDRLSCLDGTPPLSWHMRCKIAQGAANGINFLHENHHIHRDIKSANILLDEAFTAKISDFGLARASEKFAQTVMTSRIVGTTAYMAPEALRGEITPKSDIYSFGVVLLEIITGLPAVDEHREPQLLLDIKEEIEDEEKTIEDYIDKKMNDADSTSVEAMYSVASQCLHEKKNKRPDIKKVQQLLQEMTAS

THP-1 cells = test: LPS induced cytokine (TNFα and IL8) production assay in THP-1 cells; type: cell-based; conditions: Homo sapiens, 300 ng/mL LPS
Procedure: Cytokine Production Assay
Provided compounds were also assayed in an LPS (Lipopolysacharide) or R848 (TLR-7 agonist) induced cytokine (TNFα and IL8) production assay in THP-1 cells, human peripheral blood mononuclear cells (hPBMC), and whole blood. The exemplary protocol for this assay in THP-1 cells was as follows below.
THP-1 cells from ATCC (TIB-202) were cultured in RPMI Medium 1640 (Invitrogen, Cat No. A10491-01), 10% fetal bovine serum (Invitrogen, Cat No. 10099141, Lot No. 8172882) containing 100 U/mL Penicillin, 100 μg/mL streptomycin (Invitrogen, Cat No. 15140-122), and 50 uM 2-Mercaptoethanol (Invitrogen, Cat No. 21985023). LPS-EK ultra pure (Invivogen, Cat No. tlrl-peklps) was used to induce IL8 and TNFα production, that was detected in the cell culture supernatant by IL8 HTRF kit (Cisbio, Cat No. 62IL8PEB) and TNFα HTRF kit (Cisbio, Cat No. 62TNFPEB), as per manufacturer instructions. Cells were cultured in 96 well assay plates at 100,000 cells per well, and compounds diluted in final 0.3% DMSO were pre-incubated with cells for 1 hour prior to stimulation with 300 ng/mL LPS. Cytokine production in cell supernatant was measured at 5 hours for TNFα and IL8 production, and for 16 hours for IL8 production and assessment of cell viability.
The compound numbers correspond to the compound numbers in Table 1. […] “NA” stands for “not assayed.”

| Compound | IC50 (IRAK4) [nM] | IC50 (THP-1 cells; read-out: IL8 production IC50) [nM] | IC50 (THP-1 cells; read-out: TNFα production IC50) [nM] |
| --- | --- | --- | --- |
| CO[C@H](C[C@H]1CCc2sc3ncnc(O[C@H]4CC[C@H](N(C)C)CC4)c3c21)C(N)=O [Compound I-77, (2R)-3-[(3R)-12-[[4-(dimethylamino)cyclohexyl]oxy]-7-thia-9,11-diazatricyclo[6.4.0.0[2,6]]dodeca-1(8),2(6),9,11-tetraen-3-yl]-2-methoxypropanamide] | < 5000 | 500 to 1000 | 1000 to 5000 |
| C[C@H](O)C[C@H]1CCc2sc3ncnc(O[C@H]4CC[C@H](N(C)C)CC4)c3c21 [Compound I-40, (2S)-1-[(3R)-12-[[4-(dimethylamino)cyclohexyl]oxy]-7-thia-9,11-diazatricyclo[6.4.0.0[2,61]]dodeca-1(8),2(6),9,11-tetraen-3-yl]propan-2-ol] | < 5000 | 1000 to 5000 | 1000 to 5000 |
| N#CC(C[C@H]1CCc2sc3ncnc(O[C@H]4CC[C@H](N5CCOCC5)CC4)c3c21)C(N)=O (stereo partly drawn) [Compound I-86, 2-cyano-3-((R)-4-(((1r,4R)-4-morpholinocyclohexyl)oxy)-6,7-dihydro-5H-cyclopenta[4,5]thieno[2,3-d]pyrimidin-5-yl)propanamide] | < 5000 |  | 1000 to 5000 |
| CN(C)[C@H]1CC[C@H](Oc2ncnc3sc4c(c23)[C@@H](C[C@@H](O)C(F)(F)F)CC4)CC1 [Compound I-68, (R)-3-((R)-4-(((1r,4R)-4-(dimethylamino)cyclohexyl)oxy)-6,7-dihydro-5H-cyclopenta[4,5]thieno[2,3-d]pyrimidin-5-yl)-1,1,1-trifluoropropan-2-ol] | < 5000 | ≤ 500 | 500 to 1000 |
| NC(=O)[C@H]1CCc2sc3ncnc(N[C@H]4CC[C@H](N5CCOCC5)CC4)c3c2C1 [Compound I-207, (12S)-3-[[4-(morpholin-4-yl)cyclohexyl]amino]-8-thia-4,6-diazatricyclo[7.4.0.0[2,7]]trideca-1(9),2(7),3,5-tetraene-12-carboxamide] | < 5000 | 1000 to 5000 | 1000 to 5000 |
| C[C@H](O)C[C@H]1CCc2sc3ncnc(O[C@H]4CC[C@H](N5CCOCC5)CC4)c3c21 [Compound I-83, (S)-1-((R)-4-(((1 r,4R)-4-morpholinocyclohexyl)oxy)-6,7-dihydro-5H-cyclopenta[4,5]thieno[2,3-d]pyrimidin-5-yl)propan-2-ol] | < 5000 |  | 500 to 1000 |
| CC[C@@H](O)C[C@H]1CCc2sc3ncnc(O[C@H]4CC[C@H](N5CCOCC5)CC4)c3c21 [Compound I-65, (R)-1-((R)-4-(((1r,4R)-4-morpholinocyclohexyl)oxy)-6,7-dihydro-5H-cyclopent[4,5]thieno[2,3-d]pyrimidin-5-yl)butan-2-ol] | < 5000 | 1000 to 5000 | 500 to 1000 |
| NC(=O)[C@@H](O)C[C@H]1CCc2sc3ncnc(O[C@H]4CC[C@H](N)CC4)c3c21 [Compound I-135, (S)-3-((R)-4-(((1r,4R)-4-aminocyclohexyl)oxy)-6,7-dihydro-5H-cyclopenta[4,5]thieno[2,3-d]pyrimidin-5-yl)-2-hydroxypropanamide] | < 5000 | 500 to 1000 | 500 to 1000 |
| CN(CC(=O)N1CCCC1)[C@H]1CC[C@H](Oc2ncnc3sc4c(c23)[C@@H](CCO)CC4)CC1 [Compound I-90, 2-(((1R,4r)-4-(((R)-5-(2-hydroxyethyl)-6,7-dihydro-5H-cyclopenta[4,5]thieno[2,3-d]pyrimidin-4-yl)oxy)cyclohexyl)(methyl)amino)-1-(pyrrolidin-1-yl)ethanone] | < 5000 |  | 1000 to 5000 |
| NC(=O)[C@H](O)C[C@H]1CCc2sc3ncnc(O[C@H]4CC[C@H](N5CCCC5)CC4)c3c21 [Compound I-228, (R)-2-hydroxy-3-((R)-4-(((1r,4R)-4-(pyrrolidin-1-yl)cyclohexyl)oxy)-6,7-dihydro-5H-cyclopenta[4,5]thieno[2,3-d]pyrimidin-5-yl)propanamide] | < 5000 | ≤ 500 | ≤ 500 |
| CN(CCc1ccccn1)[C@H]1CC[C@H](Oc2ncnc3sc4c(c23)[C@@H](CC(N)=O)CC4)CC1 [Compound I-128, 2-((R)-4-(((1 r,4R)-4-(methyl(2-(pyridin-2-yl)ethyl)amino)cyclohexyl)oxy)-6,7-dihydro-5H-cyclopenta[4,5]thieno[2,3-d]pyrimidin-5-yl)acetamide] | < 5000 | 500 to 1000 | 1000 to 5000 |
| CN[C@H]1CC[C@H](Oc2ncnc3sc4c(c23)[C@@H](C[C@H](O)C(N)=O)CC4)CC1 [Compound I-137, (2S)-2-hydroxy-3-[(3R)-12-[[4-(methylamino)cyclohexyl]oxy]-7-thia-9,11-diazatricyclo[6.4.0.0[2,6]]dodeca-1(8),2(6),9,11-tetraen-3-yl]propanamide] | < 5000 | 500 to 1000 | 500 to 1000 |
| NC(=O)[C@@H](O)C[C@H]1CCc2sc3ncnc(N[C@H]4CC[C@H](N5CCOCC5)CC4)c3c21 [Compound I-120, (S)-2-hydroxy-3-((R)-4-(((1r,4R)-4-morpholinocyclohexyl)amino)-6,7-dihydro-5H-cycyclopenta[4,5]thieno[2,3-d]pyrimidin-5-yl)propanamide] | < 5000 | ≤ 500 | ≤ 500 |
| C[C@@H](O)C[C@H]1CCc2sc3ncnc(O[C@H]4CC[C@H](N(C)CC(=O)N5CCCC5)CC4)c3c21 [Compound I-109, 2-[(4-[[(3R)-3-[(2R)-2-hydroxypropyl]-7-thia-9,11-diazatricyclo[6.4.0.0[2,6]]dodeca-1(8),2(6),9,11-tetraen-12-yl]oxy]cyclohexyl)(methyl)amino]-1-(pyrrolidin-1-yl)ethan-1-one] | < 5000 |  | 500 to 1000 |
| NC(=O)C[C@H]1CCc2sc3ncnc(O[C@H]4CC[C@H](N5CCC(F)(F)CC5)CC4)c3c21 [Compound I-229, 2-[(3R)-12-[[4-(4,4-difluoropiperidin-1-yl)cyclohexyl]oxy]-7-thia-9,11-diazatricyclo[6.4.0.0[2,6]]dodeca-1(8),2(6),9, 11-tetraen-3-yl]acetamide] | < 5000 | 500 to 1000 | ≤ 500 |
| NC(=O)C(F)(F)C[C@H]1CCc2sc3ncnc(O[C@H]4CC[C@H](N5CCOCC5)CC4)c3c21 [Compound I-142, 2,2-difluoro-3-((R)-4-(((1r,4R)-4-morpholinocyclohexyl)oxy)-6,7-dihydro-5H-cyclopenta[4,5]thieno[2,3-d]pyrimidin-5-yl)propanamide] | < 5000 | ≤ 500 | ≤ 500 |
